According to BindingDB's records for doi:10.1021/acschembio.6b00609 (University of Manchester, 2016):
pIC50: −log10 of the molar value.

Each compound was assayed against Poly(ADP-ribose) glycohydrolase (Homo sapiens, UniProt Q86W56) (assay: PARG Biochemical Assay). Settings: pH 7.4.
Protocol: Briefly, PARG in vitro assays were conducted in a total volume of 15 μL in a standard 384-well format. A total of 5 μL of human full length PARG (AstraZeneca), used at a final reaction concentration of 65 pM, was added to 5 μL of Bt-NAD ribosylated PARP1 substrate (AstraZeneca) at a final reaction concentration of 4.8 nM in assay buffer (50 mM Tris pH 7.4, 0.1 mg mL−1 BSA, 3 mM EDTA, 0.4 mM EGTA, 1 mM DTT, 0.01% Tween 20, 50 mM KCl). The reaction was incubated at RT for 10 min, and then 5 μL of detection reagent was added. Detection reagent consists of 42 nM mAb anti-6HIS XL665 (CisBio: 61HISXLB) and2.25 nM streptavidin europium cryptate (CisBio: 610SAKLB), both at 3× working stock concentrations (final concentrations of 14 nM and 0.75 nM, respectively), in detection buffer (50 mM Tris pH 7.4, 0.1 mg mL−1 BSA and 100 mM KF). Following incubation at RT for 60 min in the dark, TR-FRET signal was measured at λEx 340 nm and λEm 665 nm and λEm

Sequence of Poly(ADP-ribose) glycohydrolase (Q86W56 whole entry): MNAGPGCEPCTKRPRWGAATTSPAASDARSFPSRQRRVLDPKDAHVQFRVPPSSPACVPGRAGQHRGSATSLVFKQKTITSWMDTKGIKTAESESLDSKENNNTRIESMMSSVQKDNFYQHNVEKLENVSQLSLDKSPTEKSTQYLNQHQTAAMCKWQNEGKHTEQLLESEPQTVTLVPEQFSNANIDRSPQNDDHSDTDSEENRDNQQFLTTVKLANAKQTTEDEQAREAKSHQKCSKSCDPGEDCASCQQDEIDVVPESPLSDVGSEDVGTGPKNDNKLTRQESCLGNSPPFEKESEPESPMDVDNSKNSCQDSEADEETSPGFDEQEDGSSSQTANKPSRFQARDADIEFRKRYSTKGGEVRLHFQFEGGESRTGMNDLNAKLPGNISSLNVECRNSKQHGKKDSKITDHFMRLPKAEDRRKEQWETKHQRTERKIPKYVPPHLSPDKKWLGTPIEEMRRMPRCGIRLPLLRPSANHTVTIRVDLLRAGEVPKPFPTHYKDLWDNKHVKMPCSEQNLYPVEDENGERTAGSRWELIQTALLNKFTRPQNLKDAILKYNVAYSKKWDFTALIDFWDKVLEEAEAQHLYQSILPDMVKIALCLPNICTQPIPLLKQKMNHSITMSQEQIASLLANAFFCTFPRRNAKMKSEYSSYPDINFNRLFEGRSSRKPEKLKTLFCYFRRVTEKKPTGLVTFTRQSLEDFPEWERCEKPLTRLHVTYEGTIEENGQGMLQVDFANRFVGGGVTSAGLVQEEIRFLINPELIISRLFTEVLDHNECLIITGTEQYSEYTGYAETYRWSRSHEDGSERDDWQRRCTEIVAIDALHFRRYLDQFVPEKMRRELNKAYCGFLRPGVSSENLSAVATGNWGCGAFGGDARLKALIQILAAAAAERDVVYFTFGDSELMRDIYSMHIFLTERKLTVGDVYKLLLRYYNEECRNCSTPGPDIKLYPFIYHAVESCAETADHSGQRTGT

| Compound | pIC50 |
| --- | --- |
| CC(C)(C)NS(=O)(=O)c1ccc2c(c1)C(=O)c1ccccc1C2=O [PDD00013907 (1)] | < 4.22 |
| Cc1nc(C)c(Cn2c(=O)n(-c3ncns3)c3cc(S(=O)(=O)NC4(C)CC4)ccc32)s1 [PDD00017238 (5)] | 7.40 |
| Cc1cc(Cn2c(=O)n(Cc3cnc(C)s3)c(=O)c3cc(S(=O)(=O)NC4(C)CC4)ccc32)n(C)n1 [PDD00017273 (4)] | 7.59 |

The remaining lines, values ahead:

| pIC50 | Compound |
| --- | --- |
| < 4.22 | Cc1cc(Cn2c(=O)n(Cc3cnc(C)s3)c(=O)c3cc(S(=O)(=O)N(C)C4(C)CC4)ccc32)n(C)n1 [PDD00031704 (6)] |
| < 4.22 | Cc1nc(C)c(Cn2c(=O)n(-c3ncns3)c3cc(S(=O)(=O)N(C)C4(C)CC4)ccc32)s1 [PDD00031705 (7)] |
